{
  "source": "patent US20250042925A1",
  "about": "“Improved Compositions and Methods for Targeting Mitochondria in Cancer Cells” (The Medical College of Wisconsin, Inc., priority 2021, published 2025)",
  "key": {"[1]": {"tested_on": "Panc-1 human pancreatic cancer cells", "experiment": "Cell growth (IncuCyte confluence) in Panc-1 cells", "source_text": "Values are mean±SD, n=4, each experiment completed in technical quadruplicate.\nTo investigate tumor cell selectivity, human pancreatic nestin-expressing cells (HPNE) were used as a surrogate for normal epithelial cells, and human pancreatic stellate cells (HPSC) were studied as a non-transformed stromal cell type. Cells were exposed to escalating concentrations of MMe, pCF3-MMe, mCF3-MMe, and pMeO-MMe (FIGS. 2A-2D) and percent confluency measured as a surrogate for daily proliferation.\nCells were plated to standard 96-well tissue culture plates at 4,000 cells/well. Mitochondria-targeted compounds were diluted in full serum medium and added to wells. Cell confluence was measured using an IncuCyte S3 every 2 hours at 10× magnification. […] Image analyses were conducted using the IncuCyte S3 imaging software system."}, "diabetic patients": {"tested_on": "diabetic patients", "conditions": "cited from earlier work"}, "[2]": {"tested_on": "KPC1242, Panc-1, AsPC-1, HCT-116, MDA-MB-231, OVCAR-4, OVCAR-8 cancer cell lines", "experiment": "Cell growth (IncuCyte confluence) in cancer cell lines", "assay_type": "cell-based, murine, human", "conditions": "increasing concentrations 0.1 μM-10 μM, each of the cancer cells", "from_the_text": "(§1) Murine pancreatic cancer cells KPC1242 (David Tuveson, Cold Spring Harbor), human pancreatic cancer cells, Panc-1 (ATCC: CRL-1469), human breast cancer cells MDA-MB-231 (ATCC: CRM-HTB-26), and human pancreatic stellate cells HPSC (Rosa F. Hwang, MD Anderson cancer) were all cultured in DMEM (Gibco ThermoFisher Scientific, Waltham, MA, Cat #11965084) containing 10% v/v fetal bovine serum (Omega Scientific, Inc., Tarzana, CA, Cat #FB-12). Human pancreatic cancer cells AsPC-1 (ATCC: CRL-1682), human ovarian cancer cells OVCAR-8 (NIH: CVCL-1629), and human ovarian cancer cells OVCAR-4 (NIH: CVCL-1627) were all cultured in DMEM (Gibco, Cat #22400089) containing 10% v/v fetal bovine serum (Omega Scientific). Human colon cancer cells HCT-116 (ATCC: CCL-247) were cultured in McCoy's 5A Modified Medium (Gibco, Cat #16600082) containing 10% v/v fetal bovine serum (Omega Scientific). Human pancreatic duct epithelial cells HPNE (ATCC: CRL-4023) were cultured in DMEM and 200 mM L-Glutamine and 7.5% w/v NaCO3 further supplemented with 15% v/v fetal bovine serum, M3-Base A (Incell, San Antonio, TX), 1M D-Glucose (Gibco Cat #J60067.EQE), 100 μg/mL human EGF (Gibco Cat #PHG0313) and 10 mg/mL puromycin (ThermoFisher, Cat #A1113802)."}, "[3]": {"tested_on": "HPNE and HPSC non-transformed cells", "experiment": "Cell growth (confluence) of normal non-transformed cells", "assay_type": "cell-based, human", "experimental": "To test the off-target effects of the refined MMe analogs on normal non-transformed cells, the growth of HPNE cells (FIGS. 11A, 11D, and 11G), used as a surrogate for normal pancreatic ductal epithelium, or normal stromal HPSC cells (FIGS. 11B, 11E, and 11H) were measured in increasing concentrations of MMe, pCF3-MMe, or mCF3-MMe and compared to the vehicle control.\nas §1"}},
  "data": [
    {"molecule": "COc1ccc([P+](CCCCCCCCCCNC(=N)NC(=N)N)(c2ccc(OC)cc2)c2ccc(OC)cc2)cc1", "note": "[pMeO-MMe]", "values": [
      {"measurement": "confluence", "setting": "[1]; human pancreatic cancer cells", "value": "concentration-dependent decrease in confluence"},
      {"measurement": "efficacy in pancreas cancer cells", "setting": "[1]; in contrast to the fluorinated compound", "value": "significantly lower efficacy"}
    ]},
    {"molecule": "CN(C)C(=N)N=C(N)N", "note": "[Metformin]", "values": [
      {"measurement": "tolerated daily doses", "setting": "diabetic patients", "value": "2-3 grams"}
    ]},
    {"molecule": "N=C(N)NC(=N)NCCCCCCCCCC[P+](c1cccc(C(F)(F)F)c1)(c1cccc(C(F)(F)F)c1)c1cccc(C(F)(F)F)c1.[Br-]", "note": "[mCF3-MMe, (10-(3-carbamimidoylguanidino)decyl)tris(3-(trifluoromethyl)phenyl)phosphonium bromide]", "values": [
      {"measurement": "cell confluency", "setting": "[2]", "value": "decreased in a concentration-dependent manner"},
      {"measurement": "reduction in toxicity to normal cells compared to MMe", "setting": "[3]", "value": "~10", "unit": "fold"},
      {"measurement": "sensitivity of normal non-transformed cells compared to cancer cells", "setting": "[3]; HPNE, HPSC versus cancer cells", "value": "more than a log less sensitive"}
    ]}
  ]
}
